Laboratory results reported in patent publication US12509482B2, “3′-ketoglycoside compound for the slow release of a volatile alcohol” (GLYCOSCIENCE, S.L., priority 2020, dated 2025).
Several values for one entry are separate records, joined by “and”; a condition that tells them apart may be missing. Equal entries are not always repeated. Blank lines part the entries; values can stand above or below the compound they belong to.

Columns and labels:
[1] = tested on: mosquito Culex pipiens pallens; details: Park et al., J. Am. Mosquito Control Assoc., 2005; cited from earlier work
[2] = Example 32: release of geraniol from geranyl-O-β-D-3′-ketoglucopyranoside (PEG200, L-arginine, calcium chloride solution) on a paper kitchen towel disc, room temperature; assay type: physicochemical
Protocol: Geranyl-O-β-D-3′-ketoglucopyranoside, obtained according to Example 4, (50 mg) was dissolved in polyethylene glycol 200 (PEG200) (0.1 mL) with gentle heating. 0.1 mL of a solution of L-arginine (10 mg) dissolved in 0.1 mL of a 3:7 w/v solution of anhydrous calcium chloride in water was then added and thoroughly mixed. The resultant solution was spread over a 5 cm diameter paper kitchen towel disc and left to stand at room temperature. The smell of released geraniol evolved from the disc was then assessed with time as strong, medium or weak and reported in Table XIX:
After 19 h, the reaction mixture was dissolved in D4-MeOH and analysed by 1H NMR.

[3] = Description: alcohol release from model compounds (III), (IV) and compound (V) in buffer, water and skin washings; assay type: physicochemical
[4] = tested on: Aedes albopictus mosquitoes; experiment: Example 33: in vitro mosquito testing, landings on treated Hemotek membranes; assay type: in vivo; details: for Landing (total number of landings over the 20-minute exposure): 50 mg on membrane, 15 females, duplicate membranes
Protocol: Aedes albopictus mosquitoes were reared and maintained at 26±2° C. temperature, ≥80%±10 relative humidity, with a 12 h:12 h (light:dark) photoperiod.
Populations of adult mosquitoes were allowed to feed on sugar solution (10%) but were not blood fed before tests.
Geranyl-O-β-D-3′-ketoglucopyranoside, obtained according to Example 4, (100 mg) was dissolved in polyethylene glycol 200 (PEG200) (0.2 mL) with gentle heating to give Solution 1. Then 200 mg of L-arginine was dissolved in 2 mL of a 3:7 w/v solution of anhydrous calcium chloride in water to give Solution 2. Solution 2 (0.2 mL) was added to all of Solution 1 to give Solution 3. The contents of Solution 3 were thoroughly mixed and half of the resultant solution was applied to parallel 5 cm diameter artificial Hemotek membranes covered with paper kitchen towel of equal diameter. Parallel duplicate membranes, covered with paper kitchen towel, were also each treated with 0.2 mL of a 1:1 v/v solution of PEG200/Solution 2 and a further two parallel membranes were left untreated.
The membranes were heated over a reservoir of sheeps' blood at 37° C. using a Hemotek system and periodically exposed to 5- to 7-day old active host-seeking female mosquitoes, selected and collected using an aspirator and organized into batches (15 females) in plastic test containers. The heating was switched off between exposures to maintain membrane integrity and switched on 5 minutes prior to each exposure. Each membrane was exposed to a fresh container of female mosquitos for 20 minutes immediately after membrane preparation and again after 2 h, 4 h, 6 h and 8 h. At each time point, the number of mosquitos landing on each membrane immediately after exposure and 5, 10 and 20 minutes after exposure was counted and the total number of landings over each 20-minute exposure summed and tabulated.

[5] = Example 17: release of geraniol from a 40 mg/mL suspension of geranyl-O-β-D-3′-ketoglucopyranoside, 0.1 M phosphate buffer pH 7, 10% DMSO, 37° C.; assay type: physicochemical; details: after 3 d
Protocol: In this example the rate of release of geraniol from a 40 mg/mL suspension of (2R,3S,6R)-2-(((E)-3,7-dimethylocta-2,6-dien-1-yl)oxy)-3,5-dihydroxy-6-(hydroxymethyl)tetrahydro-4H-pyran-4-one (geranyl-O-β-D-3′-ketoglucopyranoside) in 0.1 M deuterated phosphate buffer solution, pH 7, containing 10% DMSO at 37° C. was determined.
In a stoppered glass vial, geranyl-O-β-D-3′-ketoglucopyranoside (20 mg) was dissolved in D6-DMSO (0.05 mL) then diluted with 0.1 M sodium phosphate buffer, pH 7.0 (0.45 mL) and the resultant suspension incubated by shaking at 37° C.

[6] = Example 31: stability of geranyl-O-β-D-3′-ketoglucopyranoside in D2O at 50° C.; assay type: physicochemical; details: 5 mg in D2O (1 mL), 2 weeks
Protocol: Geranyl-O-β-D-3′-ketoglucopyranoside, obtained according to Example 4 (5 mg) was added to D2O (1 mL) and heated at 50° C.

[7] = Example 16: release of geraniol from geranyl-O-β-D-3′-ketoglucopyranoside, 0.1 M deuterated phosphate buffer, 10% D6-DMSO, 37° C., presence and absence of fresh skin wash; assay type: physicochemical
Protocol: In this example the rate of release of geraniol from (2R,3S,6R)-2-(((E)-3,7-dimethylocta-2,6-dien-1-yl)oxy)-3,5-dihydroxy-6-(hydroxymethyl)tetrahydro-4H-pyran-4-one (geranyl-O-β-D-3′-ketoglucopyranoside) in 0.1 M deuterated phosphate buffer solutions of differing pH containing 10% D6-DMSO or in D2O containing 10% D6-DMSO at 37° C. in the presence and absence of fresh skin wash was determined.
1 M Stock solutions of sodium dihydrogen phosphate and disodium hydrogen phosphate were prepared in deuterated water (D2O).
A stock solution of 25 mg of geranyl-O-β-D-3′-ketoglucopyranoside in 0.5 mL of D6-DMSO were prepared.
In a typical experiment, a stock solution of fresh skin wash suspension was prepared by swabbing a 25 cm^2 areas of cheek skin of a human volunteer by robustly rubbing the area with a cotton wool gauze (5×5 cm^2) soaked in D2O (12.5 mL) for 1 minute and then resuspending the gauze in the D2O solution, rapidly shaking and removing the gauze after squeezing out as much liquid as possible with a spatula. 1 M Stock solutions phosphate buffer, pH 5.7 and 7.0 were prepared by appropriately mixing 1 M stock phosphate salts solutions to the correct pH as determined using a calibrated pH meter.
Half of each buffer stock solution was diluted ten times with D2O and the other with the above skin washing stock solution to give a 0.1 M phosphate buffer in D2O with a final pH of 5.7, 0.1 M phosphate buffer in D2O with a final pH of 7.0, a 0.1 M phosphate buffer in skin wash solution with a final pH of 5.7 and a 0.1 M phosphate buffer in skin wash solution with a final pH of 7.0.
To three parallel reaction vials, where indicated in the reaction table below, was added 0.45 mL of low or high pH 0.1 M phosphate buffer in D2O or 0.45 mL of low or high pH 0.1M phosphate buffer in skin wash solution followed by 0.05 mL of the glycoside substrate solutions in D6-DMSO and the mixtures incubated by shaking at 37° C. After times indicated in table below, the mixtures where analysed by ^1H-NMR with 128 scans using a 400 MHz instrument.

Structure (SMILES): Cc1ccc(C(C)C)cc1O [Carvacrol, 2-methyl-5-propan-2-ylphenol]
repellency compared with DEET (in words) [1]: outperformed N,N-diethyl-m-methylbenzamide (DEET)

Geraniol strength by smell ([2]; 0 h): strong | Geraniol strength by smell ([2]; 0.3 h): strong | Geraniol strength by smell ([2]; 2 h): strong | Geraniol strength by smell ([2]; 3 h): strong | Geraniol strength by smell ([2]; 4 h): strong | Geraniol strength by smell ([2]; 6 h): strong | Geraniol strength by smell ([2]; 11 h): medium | Geraniol strength by smell ([2]; 19 h): medium | degraded ([3]; after 3 days): approximately 50% | extent of conversion to geraniol by 1H-NMR [5]: approximately 50% | smell of geraniol [5]: a strong smell of geraniol was observed | stability in D2O by 1H NMR (in words) [6]: stable | % Conversion by 1H-NMR ([7]; 0.1M buffer in D2O, final pH 5.7, 19 h): 3% | % Conversion by 1H-NMR ([7]; 0.1M buffer in D2O, final pH 5.7, 41 h): 6% | % Conversion by 1H-NMR ([7]; 0.1M buffer in D2O, final pH 5.7, 72 h): 10% | % Conversion by 1H-NMR ([7]; 0.1M buffer in D2O, final pH 7.0, 19 h): 9% | % Conversion by 1H-NMR ([7]; 0.1M buffer in D2O, final pH 7.0, 41 h): 28% | % Conversion by 1H-NMR ([7]; 0.1M buffer in D2O, final pH 7.0, 72 h): 51% | % Conversion by 1H-NMR ([7]; 0.1M buffer in skin wash solution, final pH 7.0, 19 h): 10% | % Conversion by 1H-NMR ([7]; 0.1M buffer in skin wash solution, final pH 7.0, 41 h): 31% | % Conversion by 1H-NMR ([7]; 0.1M buffer in skin wash solution, final pH 7.0, 72 h): 48%
Structure (SMILES): CC(C)=CCC/C(C)=C/CO[C@@H]1O[C@H](CO)[C@@H](O)C(=O)[C@H]1O [geranyl-O-β-D-3′-ketoglucopyranoside, (2R,3S,6R)-2-(((E)-3,7-dimethylocta-2,6-dien-1-yl)oxy)-3,5-dihydroxy-6-(hydroxymethyl)tetrahydro-4H-pyran-4-one]
degradation rate compared with compound (III) (in words) [3]: degraded significantly faster than compound (III) | aroma of geraniol on opening the stoppered reaction vessel ([3]; 20 mg/mL mixture, after 3 d): a very pungent aroma of geraniol was immediately noticeable | Landing (total number of landings over the 20-minute exposure) ([4]; 6 h, listed as GS0010): 4 and 3 | Landing (total number of landings over the 20-minute exposure) ([4]; 8 h): 0 | repellent effect (conclusion in words) ([4]; in vivo): a repellent effect is provided | landings compared with diluent treated or untreated membranes (in words) ([4]; over 8 h): significantly fewer landings than observed with diluent treated or untreated membranes | pH dependence of geraniol release (in words) ([7]; 37° C., presence or absence of skin wash): only slowly degraded at pH 5.8, but releases geraniol at a significantly higher rate at pH 7.4 that is unchanged in the presence or absence of skin wash
